Here are results for four compounds from patent publication US9375000B2, “Pesticidal arylpyrrolidines” (Bayer Intellectual Property GmbH, priority 2011, dated 2016).

One may read the log P as the decadic logarithm of the partition coefficient of the neutral form, usually between octanol and water. The logP is the decadic logarithm of the partition coefficient of the neutral form, usually between octanol and water. Higher therefore signals higher lipophilicity.

Data set [1] concerns mustard beetle larvae (Phaedon cochleariae). The experiment in a line: Phaedon cochleariae test (PHAECO spray application). In kind it is in vivo. The following applies: application rate 500 g/ha; after 7 days. The procedure: To produce a suitable preparation of active compound, 1 part by weight of active compound is mixed with the stated amount of solvent and emulsifier, and the concentrate is diluted with emulsifier-containing water to the desired concentration. Chinese cabbage (Brassica pekinesis) leaf-disks are sprayed with a preparation of the active ingredient of the desired concentration. Once dry, the leaf disks are infested with mustard beetle larvae (Phaedon cochleariae). After 7 days mortality in % is determined. 100% means that all beetle larvae have been killed and 0% means that none of the beetle larvae have been killed.

Data set [2] deals with fall armyworm larvae (Spodoptera frugiperda). The experiment in a line: Spodoptera frugiperda test (SPODFR spray application). In kind it is in vivo. The settings on record: application rate 500 g/ha; after 7 days. Here is the method: To produce a suitable preparation of the active compound, 1 part by weight of active compound is mixed with the stated amount of solvent and emulsifier, and the concentrate is diluted with emulsifier-containing water to the desired concentration. Maize (Zea mais) leaf sections are sprayed with a preparation of the active ingredient of the desired concentration. Once dry, the leaf sections are infested with fall armyworm larvae (Spodoptera frugiperda). After 7 days mortality in % is determined. 100% means that all caterpillars have been killed and 0% means that none of the caterpillars have been killed.

The nature of data set [3]: log P by HPLC on reversed phase columns (EEC directive 79/831 Annex V.A8). In kind it is physicochemical. Here is the method: Calibration was done with not branched alkan2-ones (with 3 to 16 carbon atoms) with known log P-values (measurement of log P values using retention times with linear interpolation between successive alkanones). lambda-maX-values were determined using UV-spectra from 200 nm to 400 nm and the peak values of the chromatographic signals.

Data set [4] deals with two spotted spidermite (Tetranychus urticae), OP-resistant. Put plainly: Tetranychus urticae test, OP-resistant (TETRUR spray application). The class given is in vivo. The settings on record: application rate 500 g/ha; after 6 days. The procedure: To produce a suitable preparation of active compound, 1 part by weight of active compound is mixed with the stated amount of solvent and emulsifier, and the concentrate is diluted with emulsifier-containing water to the desired concentration. French beans (Phaseolus vulgaris) which are heavily infested with all stages of the two spotted spidermite (Tetranychus urticae), are sprayed with a preparation of the active ingredient at the desired concentration. After 6 days mortality in % is determined. 100% means that all spider mites have been killed and 0% means that none of the spider mites have been killed.

The test system of data set [5] is Cucurbit Leaf Beetle (Aulacophora femoralis). Put plainly: Cucurbit leaf beetle (Aulacophora femoralis) cucumber leaf dip test. In kind it is in vivo. The following applies: active compound concentration 20 ppm; after 7 days. In a few lines: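 Cucumber leaves dipped in compound formulated with DMF and polyoxyethylene alkyl phenyl ether, diluted in water, with ammonium salt or ammonium salt plus penetration enhancer at 1000 ppm added if necessary; dried leaves placed on sterilized soil with five second-instar larvae. Kept at 25° C; larval mortality counted after 7 days.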

`Cc1cc(N2CCC(c3cc(Cl)cc(Cl)c3)(C(F)(F)F)C2O)ccc1CNC(=O)C1CC1` (mixture of isomers) [A1-77]: the “activity (mortality)” value in data set [1] and in data set [2] was 100% throughout. Further, in data set [3], the “log P” value amounted to 3.91.
Consider `Cc1cc(N2CCC(c3cc(Cl)cc(Cl)c3)(C(F)(F)F)C2O)ccc1CNC(=O)CC(F)(F)F` (mixture of isomers) [A1-79], for which the “activity (mortality)” value in data set [1] was determined as 100%; in data set [2], 83%; in data set [4], 90%. The “log P” value in data set [3] is listed as 4.09.
`CCC(=O)NCc1cc(F)c(N2CCC(c3cc(Cl)cc(Cl)c3)(C(F)(F)F)C2O)nc1Cl` (stereo not drawn) [A3-356]: the insecticidal activity in data set [5] is reported as 100%. For the same compound, the “activity (mortality)” value in data set [1], in data set [2] and in data set [4] was 100% throughout. Further, the logP in data set [3] (HPLC on reversed phase columns) came out at 3.86.
With `O=C(NCc1cc(F)c(N2CCC(c3cc(Cl)cc(Cl)c3)(C(F)(F)F)C2O)nc1Cl)C1CC1` (stereo not drawn) [A3-359], the “activity (mortality)” value in data set [1], in data set [2] and in data set [4] was 100% each time.
